In ChEMBL document CHEMBL3792365, “Dioxol and dihydrodioxin analogs of 2- and 3-phenylacetonitriles as potent anti-cancer agents with nanomolar activity against a variety of human cancer cells” (2016):

Key:
Format in all cases: functional
[1] = Growth inhibition of human OVCAR4 cells at 10 uM after 48 hrs by sulforhodamine B assay; settings: OVCAR-4, 48 h, values are per cent of control
[2] = tested on: M14; test: Growth inhibition of human M14 cells at 10 uM after 48 hrs by sulforhodamine B assay; settings: M14, 48 h, values are per cent of control
[3] = tested on: NCI-H322M; test: Growth inhibition of human NCI-H322M cells at 10 uM after 48 hrs by sulforhodamine B assay; settings: values are per cent of control
[4] = tested on: T47D; test: Growth inhibition of human T47D cells at 10 uM after 48 hrs by sulforhodamine B assay; settings: values are per cent of control
[5] = Growth inhibition of human RXF393 cells at 10 uM after 48 hrs by sulforhodamine B assay; settings: RXF 393, 48 h, values are per cent of control
[6] = Growth inhibition of human SNB75 cells at 10 uM after 48 hrs by sulforhodamine B assay; settings: SNB-75, 48 h, values are per cent of control
[7] = Growth inhibition of human UO31 cells at 10 uM after 48 hrs by sulforhodamine B assay; settings: UO-31, 48 h, values are per cent of control
[8] = Growth inhibition of human OVCAR5 cells at 10 uM after 48 hrs by sulforhodamine B assay; settings: OVCAR-5, 48 h, values are per cent of control
[9] = Growth inhibition of human COLO205 cells at 10 uM after 48 hrs by sulforhodamine B assay; settings: COLO 205, 48 h, values are per cent of control
[10] = Growth inhibition of human HCC2998 cells at 10 uM after 48 hrs by sulforhodamine B assay; settings: HCC 2998, 48 h, values are per cent of control
[11] = Growth inhibition of human HCT15 cells at 10 uM after 48 hrs by sulforhodamine B assay; settings: HCT-15, 48 h, values are per cent of control
[12] = Growth inhibition of human UACC62 cells at 10 uM after 48 hrs by sulforhodamine B assay; settings: UACC-62, 48 h, values are per cent of control
[13] = Growth inhibition of human BT549 cells at 10 uM after 48 hrs by sulforhodamine B assay; settings: BT-549, 48 h, values are per cent of control
[14] = Growth inhibition of human NCI-ADR-RES cells at 10 uM after 48 hrs by sulforhodamine B assay; settings: values are per cent of control
[15] = Growth inhibition of human SF268 cells at 10 uM after 48 hrs by sulforhodamine B assay; settings: SF-268, 48 h, values are per cent of control
[16] = tested on: NCI-H460; test: Growth inhibition of human NCI-H460 cells at 10 uM after 48 hrs by sulforhodamine B assay; settings: NCI-H460, 48 h, values are per cent of control
[17] = Growth inhibition of human HCT116 cells at 10 uM after 48 hrs by sulforhodamine B assay; settings: HCT-116, 48 h, values are per cent of control
[18] = Growth inhibition of human IGROV1 cells at 10 uM after 48 hrs by sulforhodamine B assay; settings: IGROV-1, 48 h, values are per cent of control
[19] = Growth inhibition of human SF539 cells at 10 uM after 48 hrs by sulforhodamine B assay; settings: SF-539, 48 h, values are per cent of control
[20] = tested on: A549; test: Growth inhibition of human A549/ATCC cells at 10 uM after 48 hrs by sulforhodamine B assay; settings: A549, 48 h, values are per cent of control
[21] = Growth inhibition of human OVCAR8 cells at 10 uM after 48 hrs by sulforhodamine B assay; settings: OVCAR-8, 48 h, values are per cent of control
[22] = Growth inhibition of human Caki1 cells at 10 uM after 48 hrs by sulforhodamine B assay; settings: CAKI-1, 48 h, values are per cent of control
[23] = Growth inhibition of human Hs 578T cells at 10 uM after 48 hrs by sulforhodamine B assay; settings: values are per cent of control
[24] = tested on: A498; test: Growth inhibition of human A498 cells at 10 uM after 48 hrs by sulforhodamine B assay; settings: A498, 48 h, values are per cent of control
[25] = Growth inhibition of human DU145 cells at 10 uM after 48 hrs by sulforhodamine B assay; settings: DU-145, 48 h, values are per cent of control
[26] = tested on: KM12; test: Growth inhibition of human KM12 cells at 10 uM after 48 hrs by sulforhodamine B assay; settings: KM12, 48 h, values are per cent of control
[27] = Growth inhibition of human SNB19 cells at 10 uM after 48 hrs by sulforhodamine B assay; settings: SNB-19, 48 h, values are per cent of control
[28] = tested on: SN12C; test: Growth inhibition of human SN12C cells at 10 uM after 48 hrs by sulforhodamine B assay; settings: values are per cent of control
[29] = Growth inhibition of human HOP62 cells at 10 uM after 48 hrs by sulforhodamine B assay; settings: HOP-62, 48 h, values are per cent of control
[30] = tested on: U-251; test: Growth inhibition of human U251 cells at 10 uM after 48 hrs by sulforhodamine B assay; settings: U-251, 48 h, values are per cent of control
[31] = tested on: K562; test: Growth inhibition of human K562 cells at 10 uM after 48 hrs by sulforhodamine B assay; settings: K562, 48 h, values are per cent of control
[32] = tested on: SK-MEL-28; test: Growth inhibition of human SK-MEL-28 cells at 10 uM after 48 hrs by sulforhodamine B assay; settings: SK-MEL-28, 48 h, values are per cent of control
[33] = Growth inhibition of human SW620 cells at 10 uM after 48 hrs by sulforhodamine B assay; settings: SW-620, 48 h, values are per cent of control
[34] = tested on: MDA-MB-468; test: Growth inhibition of human MDA-MB-468 cells at 10 uM after 48 hrs by sulforhodamine B assay; settings: MDA-MB-468, 48 h, values are per cent of control
[35] = Growth inhibition of human LOXIMVI cells at 10 uM after 48 hrs by sulforhodamine B assay; settings: LOX IMVI, values are per cent of control
[36] = tested on: MDA-MB-435; test: Growth inhibition of human MDA-MB-435 cells at 10 uM after 48 hrs by sulforhodamine B assay; settings: MDA-MB-435, 48 h, values are per cent of control
[37] = tested on: NCI-H522; test: Growth inhibition of human NCI-H522 cells at 10 uM after 48 hrs by sulforhodamine B assay; settings: NCI-H522, 48 h, values are per cent of control
[38] = tested on: SK-MEL-5; test: Growth inhibition of human SK-MEL-5 cells at 10 uM after 48 hrs by sulforhodamine B assay; settings: SK-MEL-5, 48 h, values are per cent of control
[39] = tested on: ACHN; test: Growth inhibition of human ACHN cells at 10 uM after 48 hrs by sulforhodamine B assay; settings: values are per cent of control
[40] = tested on: MDA-MB-231; test: Growth inhibition of human MDA-MB-231 cells at 10 uM after 48 hrs by sulforhodamine B assay; settings: MDA-MB-231, 48 h, values are per cent of control

| Structure (SMILES) | growth, % of control at 10 µM [1] [%] | growth, % of control at 10 µM [2] [%] | growth, % of control at 10 µM [3] [%] | growth, % of control at 10 µM [4] [%] | growth, % of control at 10 µM [5] [%] | growth, % of control at 10 µM [6] [%] | growth, % of control at 10 µM [7] [%] | growth, % of control at 10 µM [8] [%] | growth, % of control at 10 µM [9] [%] | growth, % of control at 10 µM [10] [%] | growth, % of control at 10 µM [11] [%] | growth, % of control at 10 µM [12] [%] | growth, % of control at 10 µM [13] [%] | growth, % of control at 10 µM [14] [%] | growth, % of control at 10 µM [15] [%] | growth, % of control at 10 µM [16] [%] | growth, % of control at 10 µM [17] [%] | growth, % of control at 10 µM [18] [%] | growth, % of control at 10 µM [19] [%] | growth, % of control at 10 µM [20] [%] | other results |
| --- | --- | --- | --- | --- | --- | --- | --- | --- | --- | --- | --- | --- | --- | --- | --- | --- | --- | --- | --- | --- | --- |
| COc1cc(/C=C(\C#N)c2ccc3c(c2)OCO3)cc(OC)c1 | 82.9 | 99.5 | 89.5 | 75.6 | 106 | 68.9 | 78.6 | 111 | 97.7 | 102 | 102 | 86.4 | 86.4 | 99.7 | 95.5 | 102 | 96.3 | 87.1 | 104 | 84.6 | growth, % of control at 10 µM [21]: 92.3%; growth, % of control at 10 µM [22]: 96.5%; growth, % of control at 10 µM [23]: 115%; growth, % of control at 10 µM [24]: 88.9%; growth, % of control at 10 µM [25]: 94.4%; growth, % of control at 10 µM [26]: 94.6%; growth, % of control at 10 µM [27]: 101%; growth, % of control at 10 µM [28]: 95.3%; growth, % of control at 10 µM [29]: 92.3%; growth, % of control at 10 µM [30]: 93.7%; growth, % of control at 10 µM [31]: 98.7%; growth, % of control at 10 µM [32]: 106%; growth, % of control at 10 µM [33]: 102%; growth, % of control at 10 µM [34]: 98.7%; growth, % of control at 10 µM [35]: 103%; growth, % of control at 10 µM [36]: 100%; growth, % of control at 10 µM [37]: 87.9%; growth, % of control at 10 µM [38]: 97.3%; growth, % of control at 10 µM [39]: 108%; growth, % of control at 10 µM [40]: 92.5% |
| COc1ccc(/C=C(\C#N)c2ccc3c(c2)OCO3)c(Cl)c1OC | 98.6 | 72.4 | 97.8 | 65.1 | 78.3 | 73.5 | 74.9 | 92.8 | 85 | 76.9 | 63.9 | 56.6 | 64.1 | 60.5 | 98.2 | 92.6 | 71.4 | 77.1 | 91.8 | 84.7 | growth, % of control at 10 µM [21]: 100%; growth, % of control at 10 µM [22]: 79.3%; growth, % of control at 10 µM [23]: 81.9%; growth, % of control at 10 µM [24]: 72.5%; growth, % of control at 10 µM [25]: 104%; growth, % of control at 10 µM [26]: 69.2%; growth, % of control at 10 µM [27]: 89.6%; growth, % of control at 10 µM [28]: 83.5%; growth, % of control at 10 µM [29]: 87.2%; growth, % of control at 10 µM [30]: 95.5%; growth, % of control at 10 µM [31]: 39.2%; growth, % of control at 10 µM [32]: 91%; growth, % of control at 10 µM [33]: 62.3%; growth, % of control at 10 µM [34]: 48.8%; growth, % of control at 10 µM [35]: 77.3%; growth, % of control at 10 µM [36]: 15.3%; growth, % of control at 10 µM [37]: 66%; growth, % of control at 10 µM [38]: 85%; growth, % of control at 10 µM [39]: 92.3%; growth, % of control at 10 µM [40]: 82.3% |
| N#C/C(=C\c1c(Cl)cccc1Cl)c1ccc2c(c1)OCO2 | 79.9 | 89.7 | 102 | 83.8 | 96.1 | 51.5 | 80.1 | 103 | 99.6 | 89.9 | 92.6 | 86.4 | 100 | 103 | 102 | 102 | 89.7 | 85.6 | 97.9 | 79.9 | growth, % of control at 10 µM [21]: 92.6%; growth, % of control at 10 µM [22]: 83.2%; growth, % of control at 10 µM [23]: 101%; growth, % of control at 10 µM [24]: 82.7%; growth, % of control at 10 µM [25]: 99.3%; growth, % of control at 10 µM [26]: 95.2%; growth, % of control at 10 µM [27]: 106%; growth, % of control at 10 µM [28]: 95.9%; growth, % of control at 10 µM [29]: 90.6%; growth, % of control at 10 µM [30]: 89%; growth, % of control at 10 µM [31]: 77.5%; growth, % of control at 10 µM [32]: 104%; growth, % of control at 10 µM [33]: 99.9%; growth, % of control at 10 µM [34]: 84.9%; growth, % of control at 10 µM [35]: 98.9%; growth, % of control at 10 µM [36]: 63.5%; growth, % of control at 10 µM [37]: 65.4%; growth, % of control at 10 µM [38]: 93.5%; growth, % of control at 10 µM [39]: 103%; growth, % of control at 10 µM [40]: 95.8% |
